Experimental data taken from US9938321B2, “Cyclic peptoid oligomers, pharmaceutical compositions and methods of using the same” (priority 2013, dated 2018).
Values after ≈ are worked out from the molar mass of the structure shown. Like-named read-outs stand apart in the source and are kept apart here. Non-standard residues stand in square brackets, D forms with d. Residues, ends and D or L forms follow the SMILES beside them. Gly(N(CH2)3NH2) = NCCCNCC(=O)O; Nphe = O=C(O)CNCc1ccccc1; Orn = NCCC[C@H](N)C(=O)O; Nlys = NCCCCNCC(=O)O

How the values were obtained:
human erythrocytes = type: cell-based; conditions: red cells of human, 1 h
Source text: A detrimental property of most AMPs is their toxicity towards host cells due to non-specific interactions with eukaryotic membranes. Thus, the development of antimicrobial oligomers is often aimed at maximizing antimicrobial activity while minimizing eukaryotic cell toxicity. The inventors therefore sought to determine the toxicity of the cyclic peptoids by measuring hemolytic activity. The concentration of antimicrobial compound required to lyse 10% of human erythrocytes (HC10) following incubation for 1 hour at 37° C., was determined.
Hemolysis assays were conducted in 96-well plates using fresh human erythrocytes in PBS (phosphate-buffered saline) solution. Erythrocytes treated with a detergent (1% Triton X-100) solution were used as a positive control for erythrocyte lysis, and vehicle buffer (PBS) was used as a negative control. Hemolytic percentages were defined as [(A−Atestblank)/(Acontrol−Ablank)]×100, where A is the absorbance of the test well and Acontrol the average absorbance of wells with erythrocytes exposed to […], Atestblank (PBS and antimicrobial) and Ablank (PBS only).

[1] = tested on: MRSA USA300 (S. aureus LAC)
Description: The cyclic pentamers and hexamers were evaluated for antimicrobial activity against S. aureus LAC, a clinical isolate of MRSA. The antimicrobial assay was conducted using previously published procedures (CLSI Broth Macrodilution Procedures CLSI M07-A7).
(§1) Minimum Inhibitory Concentrations (MIC) were determined against S. aureus LAC in RPMI media supplemented with or without normal human serum (NHS). The 10% hemolytic dose was determined from lysis of human erythrocytes. A selectivity ratio (SR) is defined as HC10/MIC. Cytotoxicity assays were performed using a CellTiter kit with HeLa cells. […] TI: therapeutic index defined as LD50/MIC.
(§2) Antimicrobial susceptibility assays were conducted in 96-well plates using the broth microdilution procedure outlined in the document M07-A7 of the CLSI (Clinical and Laboratory Standards Institute. Methods for Dilution Antimicrobial Susceptibility Tests for Bacteria That Grow Aerobically-Seventh Edition: Approved Standard CLSI document M07-A7. CLSI, Wayne, USA, 2006). Screens against Staphylococcus aureus LAC, MW2, Newman, and RN6734 were conducted in RPMI (Roswell Park Memorial Institute) medium. For assays in serum, normal human pooled serum (NHS) was filtered through a 0.45 μm syringe filter (Pall) prior to dilution with RPMI, such that each well contained 50% (v/v) NHS. Experiments were conducted in three independent replicates of three parallel trials to ensure statistical significance.
(§3) MRSA pulse-field gel electrophoresis types USA300 (strain LAC) (Kennedy, et al, Proc. Natl. Acad. Sci. U.S.A. 2008, 105, 1327-1332) and USA500 (BK2395) (Alonzo, 3rd, et al, Mol. Microbiol. 2012, 83, 423-435) were used in this study. S. aureus were grown in tryptic soy broth (BD Biosciences) as described previously. (Alonzo) Antimicrobial susceptibility assays were conducted in 96-well plates using the broth […] procedure outlined in the document M07-A7 of the CLSI. (Clinical and Laboratory Standards Institute. Methods for Dilution Antimicrobial Susceptibility Tests for Bacteria That Grow Aerobically-Seventh Edition: Approved Standard CLSI document M07-A7. CLSI, Wayne, USA, 2006). The screens against Staphylococcus aureus LAC were conducted in either LB (Luria-Bertani) or RPMI medium. For assays in serum, normal human pooled serum (NHS) was filtered through a 0.45 μm syringe filter (Pall) prior to dilution with RPMI, such that each well contained 50% (v/v) NHS. Experiments were conducted in three independent replicates of three parallel trials to ensure statistical significance.

[2] = tested on: MRSA USA300 (S. aureus LAC); conditions: for MIC + NHS: MRSA USA300 in 50% (v/v) normal human serum; for decrease in anti-microbial activity in serum: 50% NHS versus no serum
Description: The antimicrobial activities of these four compounds were evaluated in the presence of serum. Such a consideration is critical in evaluating the potential of antimicrobial compounds to be used systemically, as serum components (e.g. proteins) may complicate antimicrobial activity. The assay was conducted similarly as described above, with the media supplemented with 50% normal human serum (NHS).
as §1, §2, §3

in vitro = conditions: for CC50 / CC50 at 1 h: LC50 (50% lethal concentration), HeLa cells, 1 hr incubation at 37° C.
Description: (§4) As an additional parameter of selectivity, the inventors also evaluated the compounds for toxicity towards nucleated mammalian cells (FIG. 3). The compounds were incubated with HeLa cells for 1 hr at 37° C. and cell viability was determined by a dye-based assay.
(§5) HeLa cells (˜[…] cells per well) were seeded in a tissue culture-treated 96-well plate (Corning). The cells were monitored for confluence via light microscopy prior to the addition of compounds to a final volume of 100 μL/well. Following incubation with the compounds (for 1 hour or 24 hours at 37° C.), Cell Titer (Promega) was added to each well and the assay was allowed to develop for 1 hour at 37° C. Absorbance was then read at 490 nm using a Wallac Envision plate reader. The experiments were always conducted in triplicate with water or ethanol as the negative control. Percent cell viability (% CV) was calculated as the ratio of mean absorbance of the test wells and the mean absorbance of the water or ethanol treated wells.
(§6) Following seeding in DMEM supplemented with 10% v/v FBS (fetal bovine serum) in tissue-culture plates (Corning), adherent HeLa cells were trypsinized, washed in PBS, and re-suspended in medium at a density of 1×10^6 cells/mL. A 100 μL cell suspension was seeded onto a 96-well plate and cultured for 25 hrs. Subsequently, cells were exposed to the different compounds for 1 and 24 hrs and the cell viability evaluated using CellTiter 96® AQueous Non-Radioactive Cell Proliferation Assay (Promega).

[3] = tested on: Plasmodium falciparum 3D7; conditions: 3D7, 96 h
Description: In order to assess the ability of the peptoid oligomers described herein to act as antimalarial agents, fluorescence-based in vitro antimalarial assays were performed.
Cultures are maintained by changing the medium daily and keeping parasitemia below 6%. When performed, parasite cultures are synchronized using a MACS cell separation column (Miltenyi Biotec). To determine parasitemia, the number of parasitized erythrocytes from 500 cells in a Giemsa stained blood smear are counted.
Drug Treatment: • 1. Add 100 μL of warm (37° C.) complete media containing drug to each well of a 96 multi-well clear, sterile plate. • 2. […] After 96 hours of growth*, freeze at −80° C. overnight. *Note: Growth can be examined by pipetting 5 from desired wells onto slides and creating blood smears. […] After freezing, thaw at 37° C. for 4 hours. • 6. Transfer 100 μL, pipetting wells up and down to mix, to a black, sterile 96 well plate. • 7. Create working solution of 0.2 μL of SYBR Green per 1 mL of lysis buffer, and add 100 μL of this solution to each well, pipetting up and down to mix/lyse erythrocytes. *Note: mixture should be a translucent red color. • 8. Incubate at room temperature, protected from light, on a shaker for 1 hour.
Measure the fluorescence using excitation and emission wavelengths of 485 and 530 nm, respectively. […]

HeLa cells = experiment: in vitro; conditions: HeLa cells, 1 hr incubation at 37° C.
Description: as §4, §5, §6

S. aureus LAC = experiment: Scanning electron microscopy of treated cells (Example 1); type: cell-based, Staphylococcus aureus; conditions: sub-MIC, MIC, or supra-MIC; 1 hr or 18 hr
Source text: AMPs have long been thought to exert their bactericidal activities by interacting with negatively-charged bacterial membranes (Zasloff, Nature 2002, 415, 389-395; Ivankin, et al, Angew. Chem. Int. Ed. 2010, 49, 8462-8465). While the exact mode of action has yet to be fully understood, the interaction of the AMP eventually leads to damage of the bacterial membrane that is visible by scanning electron microscopy (SEM). (Hartmann et al, 2010, Antimicrob Agents Ch 54, 3132-3142) SEM was used to examine the morphological changes which occur to the S. aureus cell surface upon exposure to peptoid antimicrobials (FIG. 2).
SEM samples were prepared following the procedure outlined in Hartmann et al ([…], Antimicrob Agents Ch 54:3132-3142). Mid-exponential S. aureus LAC in LB medium (10 g/L tryptone and 5 g/L yeast, pH 7.4) was prepared by diluting an overnight culture of S. aureus LAC in LB media till OD600˜0.4 (approximately 3 hours at 37° C.). […] After washing with PBS, the samples were treated with 30% ethanol for 10 minutes, 3% uranyl acetate (Electron Microscopy Sciences) in 30% ethanol/water, 50% ethanol for 10 minutes, and 70% ethanol overnight at 4° C. […]

physchem = conditions: water
[4] = Table 3, MRSA USA300, without serum
[5] = Table 2, S. aureus LAC, clinical isolate of MRSA

## N=C(N)NCCCCN1CC(=O)N(CC(c2ccccc2)c2ccccc2)CC(=O)N(CCCCNC(=N)N)CC(=O)N(CC(c2ccccc2)c2ccccc2)CC(=O)N(CCCCNC(=N)N)CC(=O)N(CC(c2ccccc2)c2ccccc2)CC(=O)N(CCCCNC(=N)N)CC(=O)N(CC(c2ccccc2)c2ccccc2)CC(=O)N(CCCCNC(=N)N)CC(=O)N(CC(c2ccccc2)c2ccccc2)CC1=O [Compound 31, C(NgbNdp)5]
Human erythrocytes
  HC10 (concentration required to lyse 10% of human erythrocytes): >62.5 µg/mL

## NCCCN1CC(=O)N(CCC(c2ccccc2)c2ccccc2)CC(=O)N(CCCN)CC(=O)N(CCC(c2ccccc2)c2ccccc2)CC(=O)N(CCCN)CC(=O)N(CCC(c2ccccc2)c2ccccc2)CC1=O [Compound C103, C(NapNdpp)3]
[1]; USA300
  MIC: 3.9 µg/mL (≈ 3.56 µM)

## NCCCN1CC(=O)N(CC(c2ccccc2)c2ccccc2)CC(=O)N(CCCN)CC(=O)N(CC(c2ccccc2)c2ccccc2)CC(=O)N(CCCN)CC(=O)N(CC(c2ccccc2)c2ccccc2)CC1=O [Compound C3, C(NapNdp)3]
[2]
  MIC + NHS: 15.6 µg/mL
In vitro
  CC50: 63 µg/mL (≈ 59.8 µM)

## NCCCN1CC(=O)N(C(c2ccccc2)c2ccccc2)CC(=O)N(CCCN)CC(=O)N(C(c2ccccc2)c2ccccc2)CC(=O)N(CCCN)CC(=O)N(C(c2ccccc2)c2ccccc2)CC1=O [Compound C104, C(NapNdpm)3]
[1]; USA300
  MIC: 3.9 µg/mL (≈ 3.85 µM)

## CC(C)C[C@@H]1NC(=O)[C@H](CCCN)NC(=O)[C@H](C(C)C)NC(=O)[C@@H]2CCCN2C(=O)[C@@H](Cc2ccccc2)NC(=O)[C@H](CC(C)C)NC(=O)[C@H](CCCN)NC(=O)[C@H](C(C)C)NC(=O)[C@@H]2CCCN2C(=O)[C@@H](Cc2ccccc2)NC1=O [Gramicidin S, reference compound] (cyclo(V[Orn]L[dF]PV[Orn]L[dF]P))
[2]
  MIC + NHS: 31.3 µg/mL
In vitro
  CC50: 31.3 µg/mL (≈ 27.4 µM)
[1]; [4]
  MIC: 31.3 µg/mL (≈ 27.4 µM)

## NCCCN1CC(=O)N(Cc2ccccc2)CC(=O)N(CCCN)CC(=O)N(Cc2ccccc2)CC(=O)N(CCCN)CC(=O)N(Cc2ccccc2)CC1=O [Compound 23, C(NapNpm)3] (cyclo([Nphe][Gly(N(CH2)3NH2)][Nphe][Gly(N(CH2)3NH2)][Nphe][Gly(N(CH2)3NH2)]))
Human erythrocytes
  HC10 (concentration required to lyse 10% of human erythrocytes): >250 µg/mL

## NCCCN1CC(=O)N(c2ccc3c(c2)Cc2ccccc2-3)CC(=O)N(CCCN)CC(=O)N(c2ccc3c(c2)Cc2ccccc2-3)CC(=O)N(CCCN)CC(=O)N(c2ccc3c(c2)Cc2ccccc2-3)CC1=O [Compound C106, C(NapN2flene)3]
[1]; USA300
  MIC: 3.9 µg/mL (≈ 3.88 µM)

## NCCCN1CC(=O)N(Cc2ccc(-c3ccccc3)cc2)CC(=O)N(CCCN)CC(=O)N(Cc2ccc(-c3ccccc3)cc2)CC(=O)N(CCCN)CC(=O)N(Cc2ccc(-c3ccccc3)cc2)CC1=O [Compound C105, C(NapNpp)3]
[1]; USA300
  MIC: 3.9 µg/mL (≈ 3.85 µM)

## COc1ccc(CN2CC(=O)N(CCCN)CC(=O)N(Cc3ccc(OC)c(OC)c3)CC(=O)N(CCCN)CC(=O)N(Cc3ccc(OC)c(OC)c3)CC(=O)N(CCCN)CC2=O)cc1OC [Compound C5-1]
[3]
  IC50: 26.8 µM

## NCCCCN1CC(=O)N(Cc2ccccc2)CC(=O)N(CCCCN)CC(=O)N(Cc2ccccc2)CC(=O)N(CCCCN)CC(=O)N(Cc2ccccc2)CC1=O [Compound 30, C(NabNpm)3] (cyclo([Nlys][Nphe][Nlys][Nphe][Nlys][Nphe]))
Human erythrocytes
  HC10 (concentration required to lyse 10% of human erythrocytes): >250 µg/mL

## NCCCN1CC(=O)N(Cc2cc(C(F)(F)F)cc(C(F)(F)F)c2)CC(=O)N(CCCN)CC(=O)N(Cc2cc(C(F)(F)F)cc(C(F)(F)F)c2)CC(=O)N(CCCN)CC(=O)N(Cc2cc(C(F)(F)F)cc(C(F)(F)F)c2)CC1=O [Compound C125, C(NapNbtfmb)3]
[2]
  decrease in anti-microbial activity in serum: sixteen-fold
  MIC + NHS: 62.5 µg/mL
In vitro; human
  CC50 at 1 h: 47 µg/mL (≈ 39.4 µM)
[1]; [5]
  MIC: 3.9 µg/mL (≈ 3.27 µM)
[1]; [4]
  MIC: 3.9 µg/mL (≈ 3.27 µM)

## Cc1ccc(CN2CC(=O)N(CCCN)CC(=O)N(Cc3ccc(C)cc3)CC(=O)N(CCCN)CC(=O)N(Cc3ccc(C)cc3)CC(=O)N(CCCN)CC2=O)cc1 [Compound C122, C(NapNpmpm)3]
[1]; [5]
  MIC: 15.6 µg/mL (≈ 18.9 µM)

## Cc1cc(C)cc(CN2CC(=O)N(CCCN)CC(=O)N(Cc3cc(C)cc(C)c3)CC(=O)N(CCCN)CC(=O)N(Cc3cc(C)cc(C)c3)CC(=O)N(CCCN)CC2=O)c1 [Compound C124, C(NapNdmb)3]
[2]
  decrease in anti-microbial activity in serum: approximately four-fold
  MIC + NHS: 15.6 µg/mL
Human erythrocytes
  HC10 (concentration required to lyse 10% of human erythrocytes): 125 µg/mL
HeLa cells
  LC50 (50% lethal concentration): ~180 µg/mL (≈ 207 µM)
In vitro; human
  CC50 at 24 h: ~100 µg/mL (≈ 115 µM)
  CC50 at 1 h: 180 µg/mL (≈ 207 µM)
S. aureus LAC
  cell morphology by SEM: cell surface damage
[3]
  IC50: 17 µM
physchem
  solubility: ≥ 15 mg/mL
[1]; [5]
  MIC: 3.9 µg/mL (≈ 4.49 µM)
[1]; USA300
  MIC: 3.9 µg/mL (≈ 4.49 µM)

## NCCCN1CC(=O)N(Cc2ccc(C(F)(F)F)cc2)CC(=O)N(CCCN)CC(=O)N(Cc2ccc(C(F)(F)F)cc2)CC(=O)N(CCCN)CC(=O)N(Cc2ccc(C(F)(F)F)cc2)CC1=O [Compound C123, C(NapNptfmpm)3]
[1]; USA300
  MIC: 3.9 µg/mL (≈ 3.95 µM)
